Test results reported in ChEMBL document CHEMBL4390668, “Discovery and Structural Optimization of Acridones as Broad-Spectrum Antimalarials” (J Med Chem, 2019).
Calls of active or inactive are those of the source. No cut-off for these calls is given here.

How the values were obtained:
[1] = Tmax in ICR mouse plasma at 80 mg/kg, po administered as single dose; type: ADME, organism-based
[2] = Mean residence time in ICR mouse liver at 80 mg/kg, po administered as single dose; type: ADME, organism-based
[3] = Apparent volume of distribution in ICR mouse plasma at 80 mg/kg, po administered as single dose; type: ADME, organism-based; conditions: in vivo
[4] = Tmax in ICR mouse liver at 80 mg/kg, po administered as single dose; type: ADME, organism-based
Plasmodium falciparum [5] = test: Antimalarial activity against drug-resistant Plasmodium falciparum 3D7 harboring A82T/V259L double mutant infected in human erythrocytes after 72 hrs by SYBR green 1-based fluorescence assay; type: functional, organism-based; conditions: 3D7, 72 h
Plasmodium falciparum [6] = test: Antimalarial activity against Plasmodium falciparum 3D7 infected in human erythrocytes after 72 hrs by SYBR green 1-based fluorescence assay; type: functional, organism-based; conditions: 3D7, 72 h
Plasmodium falciparum [7] = test: Inhibition of Plasmodium falciparum cytochrome b-c1
[8] = Selectivity index, ratio of IC50 for human HepG2 cells to IC50 for chloroquine-sensitive Plasmodium falciparum D6 infected in human erythrocytes; type: toxicity, cell-based; conditions: read-out: Ratio IC50
[9] = AUC (0 to infinity) in ICR mouse plasma at 80 mg/kg, po administered as single dose; type: ADME, organism-based; set-up: dose 80 mg/kg, route oral, time infinity
Plasmodium falciparum [10] = test: Antimalarial activity against multidrug-resistant Plasmodium falciparum Dd2 infected in human erythrocytes by SYBR green 1-based fluorescence assay; type: functional, organism-based
[11] = Mean residence time in ICR mouse plasma at 80 mg/kg, po administered as single dose; type: ADME, organism-based
Plasmodium berghei [12] = test: Antimalarial activity against luciferase-expressing Plasmodium berghei ANKA 676m1cl1 sporozoites infected in human HepG2A16 cells measured after 45 hrs by luciferase-luciferin based reporter assay; type: functional, organism-based; conditions: ANKA 676m1cl1, HepG2A16, 45 h
[13] = Cmax in ICR mouse liver at 80 mg/kg, po administered as single dose; type: ADME, organism-based; set-up: dose 80 mg/kg, route oral
[14] = Half life in mouse liver microsomes at 1 uM by LC-MS analysis; type: ADME, Microsome
Plasmodium berghei [15] = test: (§1) Antimalarial activity against blood stage luciferase-expressing Plasmodium berghei ANKA 676m1cl1 sporozoites infected in C57BL/6 mouse assessed as suppression of parasitemia at 10 mg/kg, po pretreated for 1 day followed by parasite infection and subsequent compound dosing for 2 days measured up to 30 days post-infection by YOYO1 staining based flow cytometry; type: functional
Plasmodium falciparum [16] = test: Antimalarial activity against drug-resistant Plasmodium falciparum Dd2 harboring V259L mutant infected in human erythrocytes after 72 hrs by SYBR green 1-based fluorescence assay; type: functional, organism-based; conditions: Dd2, 72 h
[17] = Cmax in ICR mouse plasma at 80 mg/kg, po administered as single dose; type: ADME, organism-based; set-up: dose 80 mg/kg, route oral
HepG2 = test: Cytotoxicity against human HepG2 cells measured after 24 to 36 hrs by resazurin dye based fluorescence assay; type: cell-based
[18] = AUC (0 to last) in ICR mouse plasma at 80 mg/kg, po administered as single dose; type: ADME, organism-based; set-up: dose 80 mg/kg, route oral, time 0 - last
[19] = Toxicity in CF1 mouse infected with blood stage Plasmodium yoelii MR4 MRA-428 assessed as clinical toxicity at 80 mg/kg, po administered once daily via gavage for 4 days starting from for 4 days starting from 24 hrs post-infection and measured daily during compound dosing; type: organism-based; conditions: in vivo
Plasmodium falciparum [20] = test: Antimalarial activity against chloroquine-sensitive Plasmodium falciparum D6 infected in human erythrocytes by SYBR green 1-based fluorescence assay; type: functional, organism-based
Plasmodium falciparum [21] = test: Antimalarial activity against atovaquone-resistant Plasmodium falciparum Tm90-C2B infected in human erythrocytes by SYBR green 1-based fluorescence assay; type: functional, organism-based
[22] = Toxicity in CF1 mouse infected with blood stage Plasmodium yoelii MR4 MRA-428 assessed as behavioral changes at 80 mg/kg, po administered once daily via gavage for 4 days starting from for 4 days starting from 24 hrs post-infection and measured daily during compound dosing; type: organism-based; conditions: in vivo
[23] = Mutagenicity in Salmonella typhimurium TA98 assessed as increase in revertant colonies up to 10 uM in presence of S9 fraction by Ames test; type: toxicity, subcellular; conditions: salmonella enterica subsp. enterica serovar typhimurium
[24] = AUC (0 to infinity) in ICR mouse liver at 80 mg/kg, po administered as single dose; type: ADME, organism-based; set-up: dose 80 mg/kg, route oral, time infinity
[25] = Apparent elimination half life in ICR mouse plasma at 80 mg/kg, po administered as single dose; type: ADME, organism-based
Plasmodium falciparum [26] = test: Antimalarial activity against drug-resistant Plasmodium falciparum Dd2 harboring M133I/A138T double mutant infected in human erythrocytes after 72 hrs by SYBR green 1-based fluorescence assay; type: functional, organism-based; conditions: Dd2, 72 h
[27] = Mutagenicity in Salmonella typhimurium TA98 assessed as increase in revertant colonies up to 10 uM in absence of S9 fraction by Ames test; type: toxicity; conditions: salmonella enterica subsp. enterica serovar typhimurium
[28] = Mutagenicity in Salmonella typhimurium TA100 assessed as increase in revertant colonies up to 10 uM in presence of S9 fraction by Ames test; type: toxicity, subcellular; conditions: salmonella enterica subsp. enterica serovar typhimurium
Plasmodium yoelii [29] = test: (§2) Antimalarial activity against blood stage Plasmodium yoelii MR4 MRA-428 infected in CF1 mouse assessed as suppression of parasitemia administered once daily via oral gavage for 4 days starting from 24 hrs post-infection and measured post-last dose by Giemsa-staining based microscopic analysis; type: functional
Plasmodium falciparum [30] = test: Antimalarial activity against multidrug-resistant Plasmodium falciparum 7G8 infected in human erythrocytes by SYBR green 1-based fluorescence assay; type: functional, organism-based
[31] = Mutagenicity in Salmonella typhimurium TA100 assessed as increase in revertant colonies up to 10 uM in absence of S9 fraction by Ames test; type: toxicity; conditions: salmonella enterica subsp. enterica serovar typhimurium
Plasmodium yoelii [32] = test: as §2, with “parasitemia at 80 mg/kg, po” for “parasitemia”, “via” for “via oral”, “at weekly intervals for 28 days” for “post-last dose”; type: functional
[33] = Half life in human liver microsomes at 1 uM by LC-MS analysis; type: ADME, Microsome
hERG (KCNH2) = hERG (KCNH2) (Homo sapiens, UniProt Q12809); test: Inhibition of human ERG expressed in CHOK1 cells at 10 uM by automated patch clamp method relative to control; type: cell-based; conditions: CHO-K1 cells that express hERG
hERG (KCNH2), sequence (Q12809 whole entry): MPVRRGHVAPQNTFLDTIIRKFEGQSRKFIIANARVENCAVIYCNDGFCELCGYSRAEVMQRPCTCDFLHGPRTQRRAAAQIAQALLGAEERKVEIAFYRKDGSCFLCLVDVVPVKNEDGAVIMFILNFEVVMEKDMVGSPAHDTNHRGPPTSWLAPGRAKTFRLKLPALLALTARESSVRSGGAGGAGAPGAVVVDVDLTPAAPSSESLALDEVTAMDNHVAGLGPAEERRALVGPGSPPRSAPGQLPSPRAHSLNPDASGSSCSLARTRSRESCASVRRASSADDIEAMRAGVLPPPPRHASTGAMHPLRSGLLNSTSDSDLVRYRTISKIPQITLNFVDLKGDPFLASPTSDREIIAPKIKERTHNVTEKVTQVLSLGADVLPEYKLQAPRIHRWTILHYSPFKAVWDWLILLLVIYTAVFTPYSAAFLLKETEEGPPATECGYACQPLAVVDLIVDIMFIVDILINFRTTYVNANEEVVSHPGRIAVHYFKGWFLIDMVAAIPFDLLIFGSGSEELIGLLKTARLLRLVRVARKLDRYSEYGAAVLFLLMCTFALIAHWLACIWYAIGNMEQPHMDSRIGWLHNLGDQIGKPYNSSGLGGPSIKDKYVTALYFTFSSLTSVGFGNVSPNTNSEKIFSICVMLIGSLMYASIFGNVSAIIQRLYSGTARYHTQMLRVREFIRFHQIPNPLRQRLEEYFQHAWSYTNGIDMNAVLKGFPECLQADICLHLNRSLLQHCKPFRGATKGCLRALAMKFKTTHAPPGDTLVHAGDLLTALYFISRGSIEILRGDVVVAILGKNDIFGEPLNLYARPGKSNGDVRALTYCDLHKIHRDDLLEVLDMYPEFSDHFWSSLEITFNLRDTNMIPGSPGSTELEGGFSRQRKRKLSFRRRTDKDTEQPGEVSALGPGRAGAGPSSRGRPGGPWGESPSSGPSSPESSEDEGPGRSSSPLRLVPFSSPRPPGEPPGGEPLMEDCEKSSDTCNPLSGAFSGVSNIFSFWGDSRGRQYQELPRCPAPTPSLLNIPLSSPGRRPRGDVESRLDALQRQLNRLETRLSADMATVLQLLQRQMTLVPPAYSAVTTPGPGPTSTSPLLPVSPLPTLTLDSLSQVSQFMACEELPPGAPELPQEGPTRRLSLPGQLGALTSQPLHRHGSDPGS

[34] = AUC (0 to last) in ICR mouse liver at 80 mg/kg, po administered as single dose; type: ADME, organism-based; set-up: dose 80 mg/kg, route oral, time 0 - last
[35] = Apparent elimination half life in ICR mouse liver at 80 mg/kg, po administered as single dose; type: ADME, organism-based; conditions: read-out: betat1/2(app) (converted)
Plasmodium berghei [36] = test: as §1, with “against liver” for “against blood”, “measured at 24” for “measured up”, “to 48 hrs” for “to 30 days”, “by luciferin-based real-time imaging analysis” for “by YOYO1 staining based flow cytometry”; type: functional
[37] = Apparent clearance in ICR mouse plasma at 80 mg/kg, po administered as single dose; type: ADME, organism-based; conditions: read-out: CL(app) (converted)
Plasmodium berghei [38] = test: as §1, with “4” for “10”; type: functional
[39] = Apparent volume of distribution in ICR mouse liver at 80 mg/kg, po administered as single dose; type: ADME, organism-based; conditions: in vivo
Plasmodium falciparum [40] = test: Ratio of IC50 for drug-resistant Plasmodium falciparum 3D7 harboring A82T/V259L double mutant infected in human erythrocytes to IC50 for Plasmodium falciparum 3D7 infected in human erythrocytes; type: functional
Plasmodium falciparum [41] = test: Ratio of IC50 for drug-resistant Plasmodium falciparum Dd2 harboring M133I mutant infected in human erythrocytes to IC50 for multidrug-resistant Plasmodium falciparum Dd2 infected in human erythrocytes; type: functional
Plasmodium falciparum [42] = test: Antimalarial activity against drug-resistant Plasmodium falciparum Dd2 harboring M133I mutant infected in human erythrocytes after 72 hrs by SYBR green 1-based fluorescence assay; type: functional, organism-based; conditions: Dd2, 72 h
Plasmodium falciparum [43] = test: Ratio of IC50 for drug-resistant Plasmodium falciparum Dd2 harboring V259L mutant infected in human erythrocytes to IC50 for multidrug-resistant Plasmodium falciparum Dd2 infected in human erythrocytes; type: functional
Plasmodium falciparum [44] = test: Ratio of IC50 for drug-resistant Plasmodium falciparum Dd2 harboring M133I/A138T double mutant infected in human erythrocytes to IC50 for multidrug-resistant Plasmodium falciparum Dd2 infected in human erythrocytes; type: functional
Plasmodium berghei [45] = test: Antimalarial activity against liver stage luciferase-expressing Plasmodium berghei ANKA 676m1cl1 sporozoites infected in C57BL/6 mouse assessed as suppression of parasitemia at 40 to 160 mg/kg, po pretreated for 1 day followed by parasite infection and subsequent compound dosing for 2 days measured at 24 to 48 hrs post-infection by luciferin-based real-time imaging analysis; type: functional

SMILES | MRT [2] | Vz [3] | Tmax [4] | IC50 (Plasmodium falciparum [5]) | IC50 (Plasmodium falciparum [6]) | inhibition (Plasmodium falciparum [7]) | IC50 (Plasmodium falciparum [10]) | IC50 (Plasmodium berghei [12]) | half-life at 1 µM [14] | IC50 (Plasmodium falciparum [16]) | IC50 (Plasmodium falciparum [21]) | Activity [23] | IC50 (Plasmodium falciparum [26]) | Activity [27] | Activity [28] | ED50 (Plasmodium yoelii [29]) | IC50 (Plasmodium falciparum [30]) | Activity [31] | half-life at 1 µM [33] | inhibition at 10 µM (hERG (KCNH2)) | further results
CCCN(CCC)CCOc1ccc2c(=O)c3c(F)cc(F)cc3[nH]c2c1 | 8.9 h | 657.604 L/kg | 7 h | 17 nM | 0.3 nM | inactive | 0.0003 to 0.23 nM | 1.4 nM | 0.25 h | 5.5 nM | 6.8 nM | Non-Toxic | 0.86 nM | Non-Toxic | Non-Toxic | 1.12 mg/kg.day | 0.0003 nM | Non-Toxic | 0.267 h | 65% | Tmax ([1]; in vivo): 7 h; selectivity ratio [8]: > 100000; AUC ([9]; in vivo): 56485 ng·h/mL; MRT [11]: 10.2 h; Cmax [13]: 3930 ng/mL; Activity (Plasmodium berghei [15]): 100%; Cmax ([17]; in vivo): 99 ng/mL; IC50 (HepG2): 42800 nM; AUC(0-t) [18]: 7560 ng·h/mL; Activity [19]: Non-Toxic; IC50 (Plasmodium falciparum [20]): 0.0003 nM; Activity [22]: Non-Toxic; AUC(0-inf) [24]: 102000 ng·h/mL; betat1/2(app) ([25]; in vivo): 54.24 h; Activity (Plasmodium yoelii [32]): 100%; AUC(0-t) [34]: 63900 ng·h/mL; half-life [35]: 13.8 h; Activity (Plasmodium berghei [36]): 100%
CCCCN(CCCC)CCOc1ccc2c(=O)c3c(Cl)c(Cl)ccc3[nH]c2c1 | 10.1 h | 223.865 L/kg | 2.75 h | 57 nM |  | inactive | 0.041 to 14 nM | 0.5 nM | 0.35 h | 140 nM | 228 nM | Non-Toxic | 38 nM | Non-Toxic | Non-Toxic | 1.03 mg/kg.day | 0.043 nM | Non-Toxic | 0.2 h | 57% | Tmax ([1]; ICR, plasma, read-out: Tmax): 2.75 h; AUC(0-inf) ([9]; ICR, plasma): 3240 ng·h/mL; MRT [11]: 6.96 h; Cmax [13]: 21300 ng/mL; Activity (Plasmodium berghei [15]): 100%; Cmax ([17]; ICR, plasma, read-out: Cmax): 226 ng/mL; AUC(0-t) [18]: 3050 ng·h/mL; Activity [19]: Non-Toxic; Activity [22]: Non-Toxic; AUC(0-inf) [24]: 169000 ng·h/mL; half-life ([25]; ICR, plasma, read-out: betat1/2(app) (converted)): 6 h; CL/F [37]: 431 mL/min/kg; Activity (Plasmodium berghei [38]): 100%; ED90 (Plasmodium yoelii [29]): 1.64 mg/kg.day; Activity (Plasmodium yoelii [32]): 100%; Vz [39]: 3.605 L/kg; AUC(0-t) [34]: 168000 ng·h/mL; half-life [35]: 4.63 h; Activity (Plasmodium berghei [36]): 100%
CCN(CC)CCOc1ccc2c(=O)c3c(Cl)c(Cl)ccc3[nH]c2c1 |  |  |  | 1520 nM | 28 nM | inactive | 12 to 40 nM | 5.5 nM | 0.833 h | 1440 nM | 1260 nM | Non-Toxic | 1680 nM | Non-Toxic | Non-Toxic | 1.8 mg/kg.day | 17 nM | Non-Toxic | > 1 h | 78% | Ratio IC50 (Plasmodium falciparum [40]): 54; Ratio IC50 (Plasmodium falciparum [41]): 6; selectivity ratio [8]: 1440; IC50 (Plasmodium falciparum [42]): 242 nM; IC50 (HepG2): 14400 nM; IC50 (Plasmodium falciparum [20]): 10 nM; Ratio IC50 (Plasmodium falciparum [43]): 36; Ratio IC50 (Plasmodium falciparum [44]): 42; ED90 (Plasmodium yoelii [29]): 8.8 mg/kg.day; Activity (Plasmodium berghei [45]): 100%
